Tests used:
Bax = Bax activation assay; format: cell-based, human; details: for Bax Conc: A-549
Procedure: 8, and lysed with Cell Extraction Buffer. This lysate was diluted in Standard Diluent Buffer over the range of the assay and measured for human active caspase-8 content. (cells are Plated in a density of 1.2 – 1.8 × 10,000 cells/well in a volume of 100µl complete growth medium + 100 ul of the tested compound per well in a 96-well plate for 24 hours before the enzyme assay for […].). […]
4.2.4. Bax activation assay
Bring all reagents, except the human Bax-α Standard, to room temperature for at least 30 minutes prior to opening. The human Bax-α Standard solution should not be left at room temperature for more than 10 minutes. All standards, controls and samples should be run in duplicate. Refer to the Assay Layout Sheet to determine the number of wells to be used and put any remaining wells with the desiccant back into the pouch and seal the ziploc. Store unused wells at 4 °C. Pipet 100 μL of Assay Buffer into the S0 (0 pg/mL standard) wells. Pipet 100 μL of Standards #1 through #6 into the appropriate wells. Pipet 100 μL of the Samples into the appropriate wells. Tap the plate gently to mix the contents. Seal the plate and incubate at room temperature on a plate shaker for 1 hour at ~500 rpm. Empty the contents of the wells and wash by adding 400 μL of wash solution to every well.
Repeat the wash 4 more times for a total of 5 washes. After the final wash, empty or aspirate the wells and firmly tap the plate on a lint free paper towel to remove any remaining wash buffer. Pipet 100 μL of yellow Antibody into each well, except the Blank. Seal the plate and incubate at room temperature on a plate shaker for 1 hour at ~500 […]
wells and firmly tap the plate on a lint free paper towel to remove any remaining wash buffer. Add […]
100 μL of blue Conjugate to each well, except the Blank. Seal the plate and incubate at room temperature on a plate shaker for 30 minutes at ~500 rpm. Empty the contents of the wells and wash by adding 400 μL of wash solution to every well. Repeat the wash 4 more times for a total of 5 washes. After the final wash, empty or aspirate the wells and firmly tap the plate on a lint free paper towel to remove any remaining wash buffer. Pipet 100 μL of Substrate Solution into each well.
Incubate for 30 minutes at room temperature on a plate shaker at ~500 rpm. Pipet 100 μL Stop Solution to each well. Blank the plate reader against the Blank wells, read the optical density at 450 nm. Calculate the average net Optical Density (OD) bound for each standard and sample by subtracting the average Blank OD from the average OD for each standard and sample. Using linear graph paper, plot the Average Net OD for each standard versus Bax concentration in each standard.
Approximate a straight line through the points. The concentration of Bax in the unknowns can be determined by interpolation. […]

caspase-9 = assay: Caspase-9 level assay; format: cell-based, human
Procedure: The impact of compounds 4a and 4b on caspase-8 and caspase-9 was also assessed to clarify how compounds 4a and 4b induce apoptosis by activating the intrinsic or extrinsic route.

caspase-8 = assay: Caspase-8 activation assay; format: cell-based, human
caspase-3 = assay: Caspase-3 activation assay
Procedure: record autophosphorylation level, EGFR kinase assay was carried out based on DELFIA/Time-
Resolved Fluorometry. The compounds were first dissolved in DMSO absolute, after dilution to
Each compound (10 µL) was incubated
with recombinant enzyme (10 µL, 5 ng for EGFR, 1:80 dilution in 100 mM HEPES) for 10 min at
25 °C, after the addition of 5X buffer (10 µL, containing 2 mM MnCl2, 100 µM Na3VO4, 20 mM HEPES and 1 mM DTT) and ATP-MgCl2 (20 µL, containing 0.1 mM ATP and 50 mM MgCl2) and
incubation for 1h. The negative and positive controls were included in each plate by the incubation
of enzyme either with or without ATP-MgCl2. The liquid was removed after incubation and the plates
were washed thrice using wash buffer. Europium-tagged antiphosphotyrosine antibody (75 µL, 400
ng) was added to each well followed by incubation of 1h and then washing of the plates using buffer.
The enhancement solution was added to each well and the signal was recorded at excitation and
The autophosphorylation percentage inhibition by compounds was calculated using the following equation:

Cytochrome C = Cytochrome C assay; format: cell-based, human
Procedure: The concentration of Cytochrome c in a cell is crucial for activating caspases and starting the intrinsic apoptosis process. […]
(§1) plate cover and incubate at room temperature, on a microplate shaker at 100 rpm if available, for 1 hour. Remove plate cover and empty the wells. Wash microwell strips 3 times as described in step 2.
(§2) Proceed to the next step. Pipette 100 μl of mixed TMB Substrate Solution to all wells, including the […]
(§3) available on a rotator set at 100 rpm. Avoid direct exposure to intense light. The point, at which the substrate reaction is stopped, is often determined by the ELISA reader. Many ELISA readers record absorbance only up to 2.0 O.D. Therefore, the color development within individual microwells must be watched by the person running the assay and the substrate reaction stopped before positive wells are no longer properly detectable. Stop the enzyme reaction by quickly pipetting 100 μL of Stop Solution into each well, including the blank wells. It is important that the Stop Solution is spread quickly and uniformly throughout the microwells to completely inactivate the enzyme. Results must be read immediately after the Stop Solution is added or within one hour if the microwell strips are stored at 2 - 8°C in the dark. Read absorbance of each microwell on a spectrophotometer using 450 nm as the primary wave length.
4.2.6. Cytochrome C assay […]
cytochrome C, and lysed with Cell Extraction Buffer. This lysate was diluted in Standard Diluent Buffer over the range of the assay and measured for cytochrome C content. (Cells are Plated in cells/well in a volume of 100µl complete growth medium + 100 µl of the tested compound + 50 µl of 1X biotin conjugated antibody+ 100 µl of 1X streptavidin-HRP+ 100 µL TMB substrate soln of per well in a 96-well plate for 24 hours before assay).
4.3. Statistical analysis
Computerized Prism 5 program was used to statistically analyzed data using one-way ANOVA test followed by Tukey’s as post ANOVA for multiple comparison at P ≤.05. Data were presented as […]

Bcl-2 = Bcl-2 inhibition assay; format: cell-based, human
Procedure: 4.2.5. Bcl-2inhibition assay
Mix all reagents thoroughly without foaming before use. Wash the microwells twice with approximately 300 μL Wash Buffer per well with thorough aspiration of microwell contents between washes. Take caution not to scratch the surface of the microwells. After the last wash, empty the wells and tap microwell strips on absorbent pad or paper towel to remove excess Wash Buffer. Use the microwell strips immediately after washing or place upside down on a wet absorbent paper for not […]
longer than 15 minutes. […] Add 100 μL of Sample Diluent in duplicate to all standard wells and to the blank wells. Prepare standard (1:2 dilution) in duplicate ranging from 32 ng/mL to 0.5 ng/mL. Add 100 μL of Sample Diluent, in duplicate, to the blank wells. Add 80 μL of Sample Diluent, in duplicate, to the sample wells. Add 20 μL of each Sample, in duplicate, to the designated wells. Add 50 μL of diluted biotin-conjugate to all wells, including the blank wells. Cover […]
Remove plate cover and empty the wells. […]
as §1, §2
as §3, with “length. […]” for “length.”

[1] = A-549, vs control untreated cells

In the case of `COc1cccc2c1C(=O)c1c(O)c3c(c(O)c1C2=O)C[C@@](O)(C(=O)CO)C[C@@H]3O[C@H]1C[C@H](N)[C@H](O)[C@H](C)O1` [Doxorubicin, reference compound], the “Bax Conc” value (Bax) was 276.20 pg/mL, the “Bax Fold Change” value (Bax; [1]) was 33 and the “Bax Conc” value (Bax; listed as doxorubicin) was 276 pg/mL. The “Caspase-9 Conc” value (caspase-9) was 16.25 ng/mL, the “Caspase-9 Fold Change” value (caspase-9; vs control cells) was 17.00 and the “Caspase-8 Conc” value (caspase-8) was 1.80 ng/mL. The “Caspase-8 Fold Change” value (caspase-8; vs control cells) was 9, the “Caspase-3 Conc” value (caspase-3; A-549) was 503.25 ± 4.50 pg/mL and the “Caspase-3 Fold Change” value (caspase-3; [1]) was 7.70. The “Cytochrome C Conc” value (Cytochrome C; A-549) was 0.60 ng/mL, the “Cytochrome C Fold Change” value (Cytochrome C; A-549, vs control) was 12 and the “Bcl-2 Conc” value (Bcl-2; A-549) was 1.98 ng/mL. The “Bcl-2 Fold Reduction” value (Bcl-2; A-549, vs control) was 2.5.
